Test: GVS characterization of Form III
Type: physicochemical
Settings: at 90% RH

GVS max uptake: 0.4% max uptake at 90% RH
Compound: Cc1cc(C)cc([C@@H]2CCCN2Cc2ccc(Oc3ccc(C(N)=O)cc3F)cc2)c1 [Form III]
